Laboratory results: patent publication US20220071933A1, “COMBINATION REMEDY” (SYMRISE AG, priority 2019, published 2022)

Legend:
[1] = system: HGT-1 parietal cell model; test: Proton secretion assay (intracellular proton index, IPX) in the HGT-1 parietal cell model; format: cell-based; settings: for IPX [induced by 50 mM AA] D: D stereoisomer; for IPX [induced by 50 mM AA] D / IPX [induced by 50 mM AA] L: 50 mM amino acid, HGT-1 cells, IPX based on log 2 data of intracellular proton concentration, lower IPX = more protons secreted; for IPX [induced by 50 mM AA] L: L stereoisomer; for acid modulating effect (indicator of satiety): among the amino acids listed in Table 1
Text: The value of intracellular proton secretion (IPX) in the parietal cell model HGT-1 (proton secretion assay), which is a marker for gastric secretion, indicates the extent to which the amino acid is able to inhibit proton secretion and is thus indirectly a measure of saturation. The intracellular proton index (IPX) is based on log 2 data of intracellular proton concentration. The lower the IPX, the more protons are secreted. A low IPX is interpreted as stimulation of gastric acid, which in turn is a saturation signal.

[2] = system: dopamine release; settings: about 0.03 mg/kg (equivalent to 0.1 μM); cited from earlier work
[3] = sensory; cited from earlier work
[4] = system: neurons; settings: concentration range 0.01 μM to 10 μM (0.003 mg/kg to 3 mg/kg); cited from earlier work

SMILES | IPX [induced by 50 mM AA] D [1] | IPX [induced by 50 mM AA] L [1] | other results
CC(N)C(=O)O (stereo not drawn) [ALA] | −0.35 ± 0.08 | 0.87 ± 0.10 | 
N=C(N)NCCC[C@H](N)C(=O)O [ARG, arginine] | −2.37 ± 0.05 | −2.71 ± 0.11 | 
N=C(N)NCCC[C@@H](N)C(=O)O [D-arginine] |  |  | acid modulating effect (indicator of satiety) [1]: best acid modulating effect
CCC(C)C(N)C(=O)O (stereo not drawn) [ILE] | −0.40 ± 0.04 | 0.58 ± 0.07 | 
N=C(N)NCCC[C@H](N)C(=O)O [L-arginine] |  |  | acid modulating effect (indicator of satiety) [1]: best acid modulating effect
CC(C)CC(N)C(=O)O (stereo not drawn) [LEU] | 1.10 ± 0.13 | 1.38 ± 0.14 | 
CCCCCCCCC(=O)NCc1ccc(O)c(OC)c1 [N-nonanoylvanillylamine, N-((4-hydroxy-3-methoxyphenyl-)methyl-)nonanamide] |  |  | stimulation of dopamine release after acetylcholine stimulation against the respective control [2]: up to 700%; detection threshold [3]: 0.107 mg/kg; irritation threshold [3]: 0.054 mg/kg; stimulation of serotonin release in neurons against the respective control [4]: up to 270%
NC(Cc1ccccc1)C(=O)O (stereo not drawn) [PHE] | 1.58 ± 0.10 | 0.50 ± 0.05 | 
O=C(O)C1CCCN1 (stereo not drawn) [PRO] | 0.63 ± 0.09 | 0.44 ± 0.08 | 
NC(CO)C(=O)O (stereo not drawn) [SER] | 0.87 ± 0.10 | 1.40 ± 0.12 | 
CC(O)C(N)C(=O)O (stereo not drawn) [THR] | 1.57 ± 0.05 | 1.43 ± 0.10 | 
NC(Cc1c[nH]c2ccccc12)C(=O)O (stereo not drawn) [TRP] | −0.04 ± 0.04 | −0.66 ± 0.23 | 
CC(C)C(N)C(=O)O (stereo not drawn) [VAL] | −0.44 ± 0.17 | 0.99 ± 0.05 | 
CCCCC/C=C/C=C/C(=O)NCC(C)C [pellitorin, Pellitorin] |  |  | detection threshold [3]: 0.1 mg/kg
